Tested on: MRL/lpr mice
Experiment: Spontaneous scratching behavior in MRL/lpr mice (antipruritic effect)
Type: in vivo
Conditions: 20 weeks old female MRL/lpr mice, n=8
Description: [drawing 8] which is an κ opioid receptor agonist compound against pruritus was evaluated. The evaluation was carried out over 5 days dividedly. On Day 1, sterilized distilled water was orally administered 30 minutes before the beginning of the recording of the scratching behavior, and the number of scratching behavior when the mouse received a solvent was counted for 60 minutes. On Day 2, Compound 1 was orally administered to the same mouse 30 minutes before the beginning of the recording of the scratching behavior at a dose of 3 μg/kg, and the number of scratching behavior was counted for 60 minutes. On Days 3 to 5, the experiments were carried out in the same schedule as in Day 2 increasing the dose of Compound 1 such that the doses of Compound 1 on Day 3, Day 4 and Day 5 were 10 μg/kg, 30 μg/kg and 100 μg/kg, respectively (n=8). […] The number of scratching behavior was counted visually by replaying the video tape. The number of scratching behavior was counted such that the series of behavior from raising the hind leg for starting the scratching to putting down the hind leg were counted as one scratching behavior. […]

SMILES: CN(C(=O)/C=C/c1ccoc1)[C@@H]1CC[C@@]2(O)[C@H]3Cc4ccc(O)c5c4[C@@]2(CCN3CC2CC2)[C@H]1O5.Cl [Compound 1, (−)-17-cyclopropylmethyl-4,5α-epoxy-3,14β-dihydroxy-6β-(N-methyl-trans-3-(3-furyl)acrylamido)morphinan hydrochloric acid salt]
- number of scratching behavior (60 minutes) versus control group at the time of administration of the solvent (30 μg/kg orally 30 minutes before recording, significant at statistical level of 5%): decreased
- number of scratching behavior (60 minutes) versus control group at the time of administration of the solvent (100 μg/kg orally 30 minutes before recording, significant at statistical level of 1%): decreased
